Data taken from patent US11504425B2, “Amphiphilic oligodeoxynucleotide conjugates as adjuvant enhancers” (WAYNE STATE UNIVERSITY, priority 2019, dated 2022).

Legend:
mouse TLR7 (mTLR7) = molecular target: T1, mouse TLR7 (mTLR7) (Mus musculus, UniProt P58681); assay: HEK mTLR7 reporter cells NF-κB/SEAP; type: cell-based; details: ligands at indicated concentrations + 1 μM ODN, 24 h
T1 construct: host or cells: HEK-Blue-mTLR7 (HEK293)
T1 sequence (P58681 27-1050): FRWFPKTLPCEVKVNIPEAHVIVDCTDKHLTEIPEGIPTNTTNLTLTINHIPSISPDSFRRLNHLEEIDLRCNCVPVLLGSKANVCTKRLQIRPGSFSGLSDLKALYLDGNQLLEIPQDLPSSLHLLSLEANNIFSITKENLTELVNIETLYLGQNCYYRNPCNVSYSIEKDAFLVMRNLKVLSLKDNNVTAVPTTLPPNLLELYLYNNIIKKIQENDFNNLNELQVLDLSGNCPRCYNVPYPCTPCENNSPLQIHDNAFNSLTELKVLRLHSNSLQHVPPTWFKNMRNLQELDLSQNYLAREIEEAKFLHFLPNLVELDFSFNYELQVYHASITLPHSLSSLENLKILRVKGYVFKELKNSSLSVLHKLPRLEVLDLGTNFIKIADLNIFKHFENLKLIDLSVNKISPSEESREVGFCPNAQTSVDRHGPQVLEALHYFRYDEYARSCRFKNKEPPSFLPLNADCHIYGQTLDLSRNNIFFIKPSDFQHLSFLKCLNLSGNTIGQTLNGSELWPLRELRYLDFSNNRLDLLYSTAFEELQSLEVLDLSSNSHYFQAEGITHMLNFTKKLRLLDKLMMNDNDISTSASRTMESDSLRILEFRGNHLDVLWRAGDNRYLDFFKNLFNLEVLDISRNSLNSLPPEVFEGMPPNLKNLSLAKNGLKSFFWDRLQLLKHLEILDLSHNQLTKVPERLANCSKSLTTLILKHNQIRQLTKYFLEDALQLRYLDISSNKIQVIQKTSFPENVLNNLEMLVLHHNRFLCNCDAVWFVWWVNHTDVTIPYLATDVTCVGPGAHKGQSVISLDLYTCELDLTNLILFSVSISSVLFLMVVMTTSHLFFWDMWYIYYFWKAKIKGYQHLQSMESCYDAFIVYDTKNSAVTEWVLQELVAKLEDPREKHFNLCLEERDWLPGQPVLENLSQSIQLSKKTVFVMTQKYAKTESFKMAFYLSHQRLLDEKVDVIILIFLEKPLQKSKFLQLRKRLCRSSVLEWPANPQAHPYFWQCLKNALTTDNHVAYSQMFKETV
Protocol: (§1) HEK-Blue™-mTLR7, mTLR8, hTLR7, hTLR8, and RAW-Blue™ cells were purchased from InvivoGen and were used to evaluate bioactivities of lipo ODNs and TLR 7/8 ligands in vitro. All these cell lines were cultured with DMEM supplemented with 10% FBS, 1% P/S and 100 μg/mL Normocin at 37° C. with 5% CO2. […] After incubating for 24 h, SEAP levels were quantified by developing supernatants with QuantiBlue™ substrate for 1 h and reading absorption at 620 nm, following manufacturer's instructions.
(§2) Raw Blue cells which respond to both murine TLR-7 and TLR-8 are also included to assess the overall modulatory effect. half-maximal effective concentration (EC50) and potency of several classic TLR7/8 ligands were evaluated in murine TLR7 and TLR8 reporter cells.

mouse TLR8 (mTLR8) = molecular target: T2, mouse TLR8 (mTLR8) (Mus musculus, UniProt P58682); assay: HEK mTLR8 reporter cells NF-κB/SEAP; type: cell-based; details: ligands at indicated concentrations + 1 μM ODN, 24 h
T2 construct: host or cells: HEK-Blue-mTLR8 (HEK293)
T2 sequence (P58682 24-1032): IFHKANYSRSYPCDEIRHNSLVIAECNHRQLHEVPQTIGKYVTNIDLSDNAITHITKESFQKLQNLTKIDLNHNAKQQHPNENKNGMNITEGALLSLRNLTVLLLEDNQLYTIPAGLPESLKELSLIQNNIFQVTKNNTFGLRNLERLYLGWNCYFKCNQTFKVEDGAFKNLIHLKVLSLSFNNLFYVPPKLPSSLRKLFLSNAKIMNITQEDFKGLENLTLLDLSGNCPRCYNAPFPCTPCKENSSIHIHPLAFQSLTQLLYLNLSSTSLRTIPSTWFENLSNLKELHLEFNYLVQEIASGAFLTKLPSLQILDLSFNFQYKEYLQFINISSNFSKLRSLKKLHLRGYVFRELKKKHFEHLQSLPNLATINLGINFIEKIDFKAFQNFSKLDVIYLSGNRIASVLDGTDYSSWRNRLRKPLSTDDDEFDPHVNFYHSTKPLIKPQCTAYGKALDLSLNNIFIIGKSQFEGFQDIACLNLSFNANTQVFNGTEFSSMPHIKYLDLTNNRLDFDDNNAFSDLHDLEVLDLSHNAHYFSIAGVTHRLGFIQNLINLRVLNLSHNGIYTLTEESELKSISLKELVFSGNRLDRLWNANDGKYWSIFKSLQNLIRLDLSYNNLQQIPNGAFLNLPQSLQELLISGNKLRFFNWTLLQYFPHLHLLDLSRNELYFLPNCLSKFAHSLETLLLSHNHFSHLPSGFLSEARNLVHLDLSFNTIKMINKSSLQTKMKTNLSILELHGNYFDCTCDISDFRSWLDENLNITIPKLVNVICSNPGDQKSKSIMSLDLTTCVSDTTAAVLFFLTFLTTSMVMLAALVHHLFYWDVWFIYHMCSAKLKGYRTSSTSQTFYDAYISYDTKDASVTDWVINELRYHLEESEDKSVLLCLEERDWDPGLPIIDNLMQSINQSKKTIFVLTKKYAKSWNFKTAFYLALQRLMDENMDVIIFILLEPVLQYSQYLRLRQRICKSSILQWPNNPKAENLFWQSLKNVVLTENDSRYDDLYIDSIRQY
Protocol: as §1, §2

Substance: 5′-TTTTTTTTTTTTTTTTTTTT-3′ [T20]
- mTLR7 activation by IMQ, CL075, R848 in the presence of the ODN (mouse TLR7 (mTLR7)): suppressed the TLR-7 activation
- mTLR8 stimulation by IMQ, CL075, R848 in the presence of the ODN (mouse TLR8 (mTLR8)): increased the potency of TLR-8 stimulation
